Results from patent US8450067B2, “Method for obtaining anti-idiotype antibodies” (Omrix Biopharmaceuticals Inc., priority 2002, dated 2013).

Experiments:
[1] = tested on: anti-anti-dsDNA (anti-Id) isolated from IVIG; experiment: Direct binding of anti-Id to the synthetic peptides by ELISA; parameters: species or system human
Description: (§1) The binding of anti-Id to the peptides was tested by ELISA.
(§2) ELISA plates were coated by 10 ug/ml of peptides in PBS overnight at 4° C. The plates were blocked with 3% BSA for 1hr at 37° C. Anti-Id was added at different concentrations. IgG purified from one donor was used as negative control.
(§3) The binding of the immunoglobulin was probed with goat anti-human IgG conjugated to alkaline phosphatase and the appropriate substrate. Between each step, extensive washings were performed with 0.05% PBS-Tween.
(§4) The same protocol was used as above, but the peptides used in this study were taken from the literature except for peptide number 1 which is the first peptide in the previous experiment.

[2] = tested on: control IgG (IgG purified from one donor); experiment: Direct binding ELISA, negative control immunoglobulin; parameters: species or system human
Description: as §1, §2, §3, §4

[3] = Table 2, anti-Id 10 μg/ml, plates coated with 10 ug/ml peptide

Substance: KHETTET [Pep 1]
- binding of anti-Id to peptide (OD at 405 nm) ([1]; Table 2, anti-Id 1 μg/ml): 0.046
- binding of anti-Id to peptide (OD at 405 nm) ([1]; Table 2, anti-Id 2.5 μg/ml): 0.269
- binding of anti-Id to peptide (OD at 405 nm) ([1]; Table 2, anti-Id 5 μg/ml): 1.329
- binding of anti-Id to peptide (OD at 405 nm) [1, 3]: 1.815
- binding of anti-Id to peptide (OD at 405 nm) ([1]; Table 3 (literature peptides), anti-Id 10 μg/ml): 1.21
- binding of anti-Id to peptide (OD at 405 nm) ([1]; Table 3, anti-Id 1 μg/ml): 0.041
- binding of anti-Id to peptide (OD at 405 nm) ([1]; Table 3, anti-Id 2.5 μg/ml): 0.074
- binding of anti-Id to peptide (OD at 405 nm) ([1]; Table 3, anti-Id 5 μg/ml): 0.216
- binding of control IgG to peptide (OD at 405 nm) ([2]; Table 2, control IgG 1 μg/ml): 0.013
- binding of control IgG to peptide (OD at 405 nm) ([2]; Table 2, control IgG 5 μg/ml): 0.016
- binding of control IgG to peptide (OD at 405 nm) ([2]; Table 3, Control IgG 1 μg/ml): 0.044
- binding of control IgG to peptide (OD at 405 nm) ([2]; Table 3, Control IgG 5 μg/ml): 0.043

Substance: PLPDWRV [Pep 12]
- binding of anti-Id to peptide (OD at 405 nm) ([1]; Table 2, anti-Id 1 μg/ml): 0.042
- binding of anti-Id to peptide (OD at 405 nm) ([1]; Table 2, anti-Id 2.5 μg/ml): 0.072
- binding of anti-Id to peptide (OD at 405 nm) ([1]; Table 2, anti-Id 5 μg/ml): 0.273
- binding of anti-Id to peptide (OD at 405 nm) [1, 3]: 1.356
- binding of control IgG to peptide (OD at 405 nm) ([2]; Table 2, control IgG 1 μg/ml): 0.043
- binding of control IgG to peptide (OD at 405 nm) ([2]; Table 2, control IgG 5 μg/ml): 0.045
